Where no end group is shown, it is not given here.
Tests used:
[1] = test system: CRF(1–16)/R1ΔN chimera of CRF1R (HEK 293 cells, transient expression); settings: ref Nielsen et al. 2000; cited from earlier work
RAW 264.7 cells = test: Proliferation assay; format: cell-based; settings: 1 μM, third day of culture (72 h), MTT; n = 3 experiments
3T3L1 mature adipocytes = test: CXCL1 release from differentiated 3T3L1 white adipocytes; format: cell-based, mouse; settings: 10 nM CRF alone, 24 h, differentiated white 3T3L1 adipocytes, ELISA

Row | Compound | block of the constitutive activity (activation) of the CRF(1–16)/R1ΔN chimera [1] | proliferation rate of RAW 264.7 cells compared to vehicle-treated cells (RAW 264.7 cells) | production of CXCL1 compared to untreated (control) cells (3T3L1 mature adipocytes)
1 | CCCCN(CC)c1nc(C)nc2c1c(C)c(C)n2-c1c(C)cc(C)cc1C [antalarmin] | blocked |  | 
2 | astressin | not blocked | levels similar to those achieved with astressin | 
3 | corticotropin-releasing factor (SEEPPISLDLTFHLLREVLEMARAEQLAQQAHSNRKLMEII; ends and bridges not checked; UniProt P06850 154-194, looked up) [CRF] |  |  | significantly reduced

Source: PMC7772748 (Amino acids, 2020)
